According to patent US10335504B2, “Heterocyclic molecules for biomedical imaging and therapeutic applications” (Washington University, priority 2013, dated 2019):
Entries after “also recorded” stand apart in the source; their conditions may differ.

Tests used:
Aβ plaques [1] = target: T1, Aβ plaques (Homo sapiens, UniProt P05067); experiment: Ex vivo staining of mouse brain sections; format: binding; settings: 24 months
T1 construct: from tissue; host or cells: brain of APPsw+/-/PS1 (and APPsw+/-) transgenic mice: sections ex vivo, and live animals for multiphoton imaging
Experimental: FIG. 2 illustrates ex vivo staining studies were performed on brain sections (50 μm) of an APPsw^+/−/PS1 mouse (24 months old) and a control WT mouse (BL/6; 24 months old) using well-established procedures. Briefly, tissue sections were immunostained with mouse monoclonal antibody and visualized by donkey-anti-mouse HJ3.4 Aβ monoclonal antibody-Alexa 568 as a positive control. […] By comparison, no staining in WT mice was seen either with F-AI-182 or the antibody indicating the targeting specificity of F-AI-182. The slides were analyzed on a Zeiss LSM 5 PASCAL confocal system coupled to a Zeiss Axiovert 200 microscope.
The slides were analyzed using a Nikon Ti-E PFS inverted microscope equipped with a Nikon 10x 0.3 NA Plan APO objective, Prior H117 ProScan flat top linear encoded stage, and Prior Lumen 200PRO illumination system with standard DAPI and FITC filter sets. The images were acquired using a Photometrics CoolSNAP HQ2 digital camera and MetaMorph microscopy automaton, and imaging software. Images were processed and analyzed using the Image J software package (NIH).

preformed Aβ1-42 fibrils = target: T2, preformed Aβ1-42 fibrils (Homo sapiens, UniProt P05067); experiment: Binding assay with preformed Aβ1-42 fibrils/aggregates in PBS (fluorescence); settings: PBS
T2 construct: preformed Aβ1-42 fibrils
Source text: In some embodiments of the present teachings, binding assays to preformed fibrils or AD brain homogenate extracts can be performed using literature procedures (Klunk, W., et al. Uncharged thioflavin-T derivatives bind to amyloid-beta protein with high affinity and readily enter the brain. Life Sci 69, 1471-1484 (2001); Zhen, W., et al. Synthesis and amyloid binding properties of rhenium complexes: preliminary progress towards a reagent for SPECT imaging of Alzheimer's disease brain. J Med Chem 42, 2805-2815 (1999)). Prior to binding assays, the stock solution (2 μM) can be thawed. To aliquots of this stock solution, ^18F-AI-182 (also exemplified for either ^18F-AI-183 or ^18F-AI-187) can be added at various concentrations to a final concentration of 200 nM Aβ fibrils or 200 μL of AD brain extracts (20-25 μg). The aggregate-bound ^18F-AI-182 (or other analogues) can be collected on Whatman GF filters using Brandon M-24R cell harvester, washed, and counted in a γ-counter (Perkin Elmer). Inhibition constants (Ki) can be calculated as described previously (Han, H., Cho, C. & Lansbury, P. J. Technetium complexes for quantification of brain amyloid. J Am Chem Soc 118, 4506-4508 (1996)). Binding assay results can assist in evaluation of target specificity.
Binding assays of F-AI-182 with preformed Aβ1-42 aggregates were performed in PBS. […] Fluorescence was not observed using Aβ aggregates alone in PBS upon excitation at 410 nm (a negative control). […] Comparative analyses can be performed with other compounds such as AV-45, BAYER 94-9172, and AZD4694. An agent can be interacting with either of the two modestly high affinity binding sites (BS1& BS2) or recognizing an entirely new site on Aβ1-42. F-AI-182 can register different complementary binding sites in relation to Aβ-pathophysiology compared to current agents.

[2] = system: Human Pancreatic Cancer Cells (PANC1); experiment: Live cell fluorescence imaging; format: cell-based; settings: 5 μM, 37° C., 30 min
Experimental: (§1) In these experiments, human carcinoma cells were incubated with AI-182
(§2) (5 μM) at 37° C. in the presence of 5% CO2 for 30 min, and examined using a Nikon Ti-E PFS inverted high resolution microscope equipped with a Nikon (Magnification: 20×) Plan APO objective, Prior H117 ProScan flat top linear encoded stage, and Prior Lumen 200PRO illumination system with standard DAPI and FITC filter sets. Top row: Live Cell Imaging of Human Glioblastoma (U87) Cells Using AI-182. Middle row: Live Cell Imaging of Human Pancreatic Cancer Cells (PANC1) Using AI-182. Bottom row: Live Cell Imaging of Human Pancreatic Cancer Cells (Mia PaCa-2) Using AI-182.

[3] = system: Human Pancreatic Cancer Cells (Mia PaCa-2); experiment: Live cell fluorescence imaging; format: cell-based; settings: 5 μM, 37° C., 30 min
Experimental: as §1, §2

[4] = system: Human Glioblastoma (U87) Cells; experiment: Live cell fluorescence imaging; format: cell-based; settings: 5 μM, 37° C., 30 min
Experimental: as §1, §2

Aβ plaques [5] = experiment: Staining of human AD brain tissue sections; format: binding; settings: person with AD; 50 nM
Experimental: Staining experiments were performed with human brain tissues. Tissue samples were obtained from the frontal lobe of clinically and neuropathologically well-characterized cases. The neuropathological diagnosis of AD was based on the criteria of the Consortium to Establish a Registry for Alzheimer's Disease (CERAD) (Mirra, S., et al. The Consortium to Establish a Registry for Alzheimer's Disease (CERAD). Part II. Standardization of the neuropathologic assessment of Alzheimer's disease. Neurology 41, 479-486 (1991)) or the National Institute of Aging-Reagan Institute (NIA-RI) (Hyman, B. & Trojanowski, J. Consensus recommendations for the postmortem diagnosis of Alzheimer disease from the National Institute on Aging and the Reagan Institute Working Group on diagnostic criteria for the neuropathological assessment of Alzheimer disease. J Neuropathol Exp Neurol 56, 1095-1097. (1997)). […]
The fluorescent probe (F-AI-183) labels fibrillar amyloid (arrow). The slides were analyzed on a using a Nikon Ti-E PFS inverted microscope equipped with a Nikon 10×0.3 NA Plan APO objective, Prior H117 ProScan flat top linear encoded stage, and Prior Lumen 200PRO illumination system with standard DAPI and FITC filter sets. […] Images were processed and analyzed using the Image J software package (NIH).

Hydrophobicity (log P) = format: physicochemical
Aβ plaques [6] = target: T1, Aβ plaques; experiment: Multiphoton imaging in live APP/PS1 mice; format: in vivo, mouse
Experimental: Prior to imaging, dextran-Texas Red was injected for mapping the blood vessels. Following labeling of blood vessels, F-AI-182 (2 mg/kg, dissolved in DMSO/PEG; 20:80) was intravenously injected. A z-stack image series was acquired from cortex surface to a depth of approx. 100 μm using microscope LSM 510META NLO (Carl-Zeiss Inc). […] The labeling of brain parenchymal plaques was visible within 10 min, indicating facile clearance from non-targeted regions and remained labeled for 30 min (FIG. 6). Multi-photon imaging can be done using ^18F-AI-182, other agents, or second generation agents (Bacskai, B., et al. Four-dimensional multiphoton imaging of brain entry, amyloid binding and clearance of an amyloid-3 ligand in transgenic mice. Proc Natl Acad Sci USA 100, 12462-12467 (2003)).

T1 sequence (P05067 672-713 limits assumed): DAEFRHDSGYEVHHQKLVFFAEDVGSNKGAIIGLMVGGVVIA
T2 sequence (P05067 672-713 limits assumed): as above

staining of brain sections of WT mice (Aβ plaques [1]; WT BL/6 mouse): no staining
Kd (preformed Aβ1-42 fibrils; concentration dependent and saturable binding, read-out: binding constant (Kd) to preformed Aβ1-42 fibrils): 59 ± 7 nM
logP (Hydrophobicity (log P)): 1.2
time at which labeling of brain parenchymal plaques was visible (Aβ plaques [6]; live APP/PS1 mice): ≤ 10 min
time plaques remained labeled (Aβ plaques [6]; live APP/PS1 mice): 30 min
SMILES: CN(C)c1ccc(/C=C/c2nc3ccc(OCCF)cc3s2)cn1 [F-AI-182]
staining of plaques in hippocampus and cortical region of brain sections (Aβ plaques [1]; APPsw+/−/PS1 mice, 100 nM, 60 min): staining of both fibrillar and diffuse plaques; also recorded: stains both fibrillar and diffuse plaques; also recorded: abundant staining of fibrillar and diffuse plaques
fluorescence of 570 nm peak upon incubation with preformed Aβ(1-42) aggregates (preformed Aβ1-42 fibrils; excitation 410 nm): remarkable enhancement in the fluorescence
probe uptake in cells (fluorescence) [2]: accumulation of the probe within cells
probe uptake in cells (fluorescence) [3]: accumulation of the probe within cells
probe uptake in cells (fluorescence) [4]: accumulation of the probe within cells
staining of Aβ plaques in human AD brain sections (Aβ plaques [5]): detect both diffuse and compact AP plaques; also recorded: stains both fibrillar and diffuse plaques; also recorded: abundant staining of Aβ plaques
labeling of plaques in vivo by multi-photon microscopy (Aβ plaques [6]; live APPsw+/−/PS1 mice, 2 mg/kg i.v., 2 mg/kg): label plaques in brain parenchyma and blood vessels (CAA)
